Reference: US20250171459A1, “2-METHYL-4',5'-DIHYDROSPIRO[PIPERIDINE-4,7'-THIENO[2,3-C]PYRAN] DERIVATIVES AS INHIBITORS OF APOL1 AND METHODS OF USING SAME” (Vertex Pharmaceuticals Incorporated, priority 2022, published 2025)

These compounds were tested against T1, APOL1 (Homo sapiens, UniProt O14791) (assay: MultiTox-Fluor Multiplex Cytotoxicity Assay in tet-inducible APOL1 T-REx-HEK293 cells (cell rescue, ratio of dead to live cells)). Conditions: tet-inducible transgenic APOL1 T-REx-HEK293 cell lines, 50 ng/mL tet, 24 hours; read-out: IP50 (i.e., IC50 for cell proliferation).
T1 sequence (O14791 1-398 S342G/I384M): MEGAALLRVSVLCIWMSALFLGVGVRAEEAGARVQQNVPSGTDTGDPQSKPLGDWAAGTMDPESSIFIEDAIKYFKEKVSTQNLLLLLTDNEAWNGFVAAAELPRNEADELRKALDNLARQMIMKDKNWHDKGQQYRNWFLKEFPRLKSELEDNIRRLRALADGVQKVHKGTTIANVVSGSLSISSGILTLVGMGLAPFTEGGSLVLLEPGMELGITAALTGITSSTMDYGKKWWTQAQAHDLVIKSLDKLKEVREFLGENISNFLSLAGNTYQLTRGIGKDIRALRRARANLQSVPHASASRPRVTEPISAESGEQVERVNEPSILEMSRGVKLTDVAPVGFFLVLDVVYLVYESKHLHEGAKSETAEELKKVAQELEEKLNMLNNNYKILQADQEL
Format: cell-based
Summary of the method: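 T-REx-HEK293 cells with tet-inducible APOL1 were treated with compound (10 μM top, 10-point 3-fold dilution, duplicate) plus 50 ng/mL tetracycline for 24 h at 37° C, in DMEM with 2% tet-free FBS. MultiTox-Fluor protease signals gave a dead/live ratio, normalized to no tet (100% viability) and tet alone (0%).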

SMILES | IC50
CCc1cc2c(s1)CCO[C@@]21CCN(Cc2cn(CC(C)(C)C3CCOCC3)nn2)[C@@H](C)C1 [Compound 100] | 100 to 500 nM
COCCn1cc(CN2CC[C@]3(C[C@@H]2C)OCCc2cc(Cl)sc23)cn1 [Compound 699, (2S,7R)-2′-chloro-1-((1-(2-methoxyethyl)-1H-pyrazol-4-yl)methyl)-2-methyl-4′,5′-dihydrospiro[piperidine-4,7′-thieno[2,3-c]pyran]] | < 100 nM
CCc1cc2c(s1)CCOC21CCN(Cc2ccc(N3C[C@@H](O)[C@H](O)C3)nc2)CC1 [Compound 1066, (3R,4R)-1-(5-((2′-ethyl-6′,7′-dihydrospiro[piperidine-4,4′-thieno[3,2-c]pyran]-1-yl)methyl)pyridin-2-yl)pyrrolidine-3,4-diol] | < 100 nM
C[C@H]1C[C@@]2(CCN1Cc1cnn(CCO)c1)OCCc1cc(CC(F)F)sc12 [Compound 563] | < 100 nM
C[C@H]1C[C@@]2(CCN1Cc1cnccn1)OCCc1cc(Cl)sc12 [Compound 666] | 100 to 500 nM
CCc1cc2c(s1)CCO[C@@]21CCN(CC(O)CO)[C@@H](C)C1 (some centres unmarked) [Compound 282] | 500 to 1000 nM
CCc1cc2c(s1)CCO[C@@]21CCN(Cc2cn(CC(O)(CO)CO)nn2)[C@@H](C)C1 [Compound 89] | < 100 nM
CCc1cc2c(s1)CCO[C@@]21CCN(CC(=O)C(C)(C)C)[C@@H](C)C1 [Compound 290] | 500 to 1000 nM
CCc1cc2c(s1)CCO[C@@]21CCN(Cc2cn(C3CN(S(=O)(=O)CCO)C3)nn2)[C@@H](C)C1 [Compound 1, 2-[3-[4-[[(2′S,4R)-2-ethyl-2′-methyl-spiro[6,7-dihydrothieno[3,2-c]pyran-4,4′-piperidine]-1′-yl]methyl]triazol-1-yl]azetidin-1-yl]sulfonylethanol] | < 100 nM
CCc1cc2c(s1)CCO[C@@]21CCN(Cc2cn([C@H]3CS(=O)(=O)C[C@H]3O)nn2)[C@@H](C)C1 [Compound 62] | < 100 nM
C[C@H]1C[C@@]2(CCN1CC1CC1)OCCc1cc(CC(F)F)sc12 [Compound 568] | < 100 nM
CCc1cc2c(s1)CCO[C@@]21CCN(CC(O)c2ccccc2Cl)[C@@H](C)C1 (some centres unmarked) [Compound 254] | < 100 nM
C[C@H]1C[C@@]2(CCN1Cc1cnn(CC(C)(CO)CO)c1)OCCc1cc(CC(F)F)sc12 [Compound 561, 2-[[4-[[(2′S, 7R)-2-(2,2-difluoroethyl)-2′-methyl-spiro[4,5-dihydrothieno[2,3-c]pyran-7,4′-piperidine]-1′-yl]methyl]pyrazol-1-yl]methyl]-2-methyl-propane-1,3-diol] | < 100 nM
CCc1cc2c(s1)CCO[C@@]21CCN(CC2CN(C(=O)CCCS(C)(=O)=O)C2)[C@@H](C)C1 [Compound 435] | < 100 nM
C[C@H]1C[C@@]2(CCN1Cc1cn(CCS(C)(=O)=O)nn1)OC[C@](O)(C(F)F)c1cc(Cl)sc12 [Compound 832] | < 100 nM
CCc1cc2c(s1)CCO[C@@]21CCN(CC2CN(C(=O)CCO)C2)[C@@H](C)C1 [Compound 447] | 100 to 500 nM
C[C@@H](CO)Cn1cc(CN2CC[C@]3(C[C@@H]2C)OCCc2c3sc(C(F)(F)F)c2CO)cn1 [Compound 908] | < 100 nM
C[C@H]1C[C@@]2(CCN1Cc1cnn(C[C@@H](O)C(C)(C)O)c1)OC[C@@H](O)c1cc(C(F)(F)F)sc12 [Compound 890, (2R)-1-[4-[[(2′S,4S,7R)-4-hydroxy-2′-methyl-2-(trifluoromethyl)spiro[4,5-dihydrothieno[2,3-c]pyran-7,4′-piperidine]-1′-yl]methyl]pyrazol-1-yl]-3-methyl-butane-2,3-diol] | < 100 nM
CCc1cc2c(s1)CCO[C@@]21CCN(C[C@H]2C[C@@H](NC(=O)CN3CCc4ccccc43)C2)[C@@H](C)C1 [Compound 337] | < 100 nM
CCc1nnc(Cn2cc(CN3CCC4(CC3)OCCc3sc(CC)cc34)nn2)o1 [Compound 1087] | 500 to 1000 nM
CCc1cc2c(s1)CCO[C@@]21CCN(C[C@H]2C[C@@H](NC(=O)C(O)CO)C2)[C@@H](C)C1 (some centres unmarked) [Compound 365] | 100 to 500 nM
CCc1cc2c(s1)CCO[C@@]21CCN(C[C@H]2C[C@@H](NC(=O)[C@H]3CCCO3)C2)[C@@H](C)C1 [Compound 368] | 100 to 500 nM
C[C@H]1C[C@@]2(CCN1Cc1cnn(CCS(C)(=O)=O)c1)OC[C@@](O)(C(F)F)c1cc(Cl)sc12 [Compound 834] | < 100 nM
CCc1cc2c(s1)CCO[C@@]21CCN(C[C@H]2C[C@@H](NC(=O)c3nnc(C)o3)C2)[C@@H](C)C1 [Compound 347] | 100 to 500 nM
CCc1cc2c(s1)CCO[C@@]21CCN(CC2CN(C(=O)c3ncccc3O)C2)[C@@H](C)C1 [Compound 423, [3-[[(2′S,4R)-2-ethyl-2′-methyl-spiro[6,7-dihydrothieno[3,2-c]pyran-4,4′-piperidine]-1′-yl]methyl]azetidin-1-yl]-(3-hydroxy-2-pyridyl)methanone] | < 100 nM
CCc1cc2c(s1)CCO[C@@]21CCN(CCOC)[C@@H](C)C1 [Compound 278, (2′S,4R)-2-ethyl-1′-(2-methoxyethyl)-2′-methyl-spiro[6,7-dihydrothieno[3,2-c]pyran-4,4′-piperidine]] | 100 to 500 nM
CCc1cc2c(s1)CCO[C@@]21CCN(C[C@H]2C[C@@H](NC(=O)CS(=O)(=O)NC)C2)[C@@H](C)C1 [Compound 342] | < 100 nM

SMILES | IC50
C[C@H]1C[C@@]2(CCN1Cc1ccc[nH]c1=O)OCCc1cc(CC(F)F)sc12 [Compound 577] | 100 to 500 nM
CCc1cc2c(s1)CCO[C@@]21CCN(Cc2cn(CCOC)nn2)[C@@H](C)C1 [Compound 129] | 100 to 500 nM
CCN(CC)C(=O)Cn1cc(CN2CC[C@]3(C[C@@H]2C)OCCc2c3sc(C(F)(F)F)c2CO)cn1 [Compound 904] | < 100 nM
C[C@H]1C[C@@]2(CCN1C1CCCC1O)OCCc1cc(CC(F)F)sc12 (some centres unmarked) [Compound 604] | 100 to 500 nM
COc1ncc(CN2CC[C@]3(C[C@@H]2C)OC[C@H](O)c2cc(Cl)sc23)cn1 [Compound 807] | 100 to 500 nM
CCc1cc2c(s1)CCOC21CCN(Cc2cn(CC3CCOCC3)nn2)CC1 [Compound 1113] | 500 to 1000 nM
C[C@H]1C[C@@]2(CCN1Cc1ccc(NS(=O)(=O)C3CC3)nc1)OCC(O)c1cc(Cl)sc12 (some centres unmarked) [Compound 824] | < 100 nM
CCc1cc2c(s1)CCO[C@@]21CCN(Cc2cn(C3CC4(C3)CS(=O)(=O)C4)nn2)[C@@H](C)C1 [Compound 25] | < 100 nM
CCc1cc2c(s1)CCOC21CCN(Cc2cn(Cc3ccc(=O)[nH]c3)nn2)CC1 [Compound 1124] | 500 to 1000 nM
Cc1cc2c(s1)[C@]1(CCN(Cc3cnn(CCS(C)(=O)=O)c3)[C@@H](C)C1)OCC2(O)C(F)F (stereo partly drawn) [Compound 1031, (2′S, 7R)-4-(difluoromethyl)-2,2′-dimethyl-1′-[[1-(2-methylsulfonylethyl)pyrazol-4-yl]methyl]spiro[5H-thieno[2,3-c]pyran-7,4′-piperidine]-4-ol] | < 100 nM
CCc1cc2c(s1)CCO[C@@]21CCN(Cc2cn(Cc3nc(C)cc(C)n3)nn2)[C@@H](C)C1 [Compound 53] | 500 to 1000 nM
C[C@H]1C[C@@]2(CCN1Cc1ccncc1F)OCCc1cc(Cl)sc12 [Compound 678] | 500 to 1000 nM
CCc1cc2c(s1)CCO[C@@]21CCN(CC2CN(C(=O)c3ccon3)C2)[C@@H](C)C1 [Compound 425] | < 100 nM
CCc1cc2c(s1)CCO[C@@]21CCN(Cc2cnc(OCC(C)(C)N)nc2)[C@@H](C)C1 [Compound 208] | < 100 nM
C[C@H]1C[C@@]2(CCN1C[C@H](O)C(N)=O)OCCc1cc(Cl)sc12 [Compound 708, (2S)-3-[(2′S, 7R)-2-chloro-2′-methyl-spiro[4,5-dihydrothieno[2,3-c]pyran-7,4′-piperidine]-1′-yl]-2-hydroxy-propanamide] | 100 to 500 nM
C[C@H]1C[C@@]2(CCN1Cc1cnn(CC(O)C3CCC3)c1)OCCc1c2sc(C(F)(F)F)c1CO (some centres unmarked) [Compound 944] | < 100 nM
C[C@H]1C[C@@]2(CCN1Cc1cnn(CC(O)c3ccnn3C)c1)OCCc1c2sc(C(F)(F)F)c1CO (some centres unmarked) [Compound 965] | < 100 nM
CCc1cc2c(s1)CCO[C@@]21CCN(CC2CN(C(=O)c3ncc[nH]3)C2)[C@@H](C)C1 [Compound 468] | < 100 nM
C[C@H]1C[C@@]2(CCN1Cc1ccccn1)OCCc1cc(Cl)sc12 [Compound 668] | 500 to 1000 nM
CCc1cc2c(s1)CCO[C@@]21CCN(C[C@H]2C[C@@H](NS(=O)(=O)CCC3NC(=O)NC3=O)C2)[C@@H](C)C1 (some centres unmarked) [Compound 415] | 100 to 500 nM
C[C@H]1C[C@@]2(CCN1Cc1cnn(CCCC(N)=O)c1)OC[C@@H](O)c1cc(C(F)(F)F)sc12 [Compound 927] | < 100 nM
C[C@H]1C[C@@]2(CCN1Cc1ccccc1F)OCCc1c2sc(Cl)c1CO [Compound 713] | 100 to 500 nM
CCc1cc2c(s1)CCO[C@@]21CCN(Cc2cn(CC(C)(C)C(C)O)nn2)[C@@H](C)C1 (some centres unmarked) [Compound 120] | 100 to 500 nM
CCc1cc2c(s1)CCOC21CCN(Cc2ccc(C(=O)NCC3(C)CCOC3)nc2)CC1 (centres unmarked) [Compound 1062] | 100 to 500 nM
C[C@H]1C[C@@]2(CCN1Cc1cccc(F)c1O)OCCc1cc(Cl)sc12 [Compound 687] | 500 to 1000 nM
COCc1c(Cl)sc2c1CCO[C@@]21CCN(Cc2cnn(CCS(C)(=O)=O)c2)[C@@H](C)C1 [Compound 762, (2′S, 7R)-2-chloro-3-(methoxymethyl)-2′-methyl-1′-[[1-(2-methylsulfonylethyl)pyrazol-4-yl]methyl]spiro[4,5-dihydrothieno[2,3-c]pyran-7,4′-piperidine]] | < 100 nM
